Laboratory results: patent publication US11339171B2, “MDM2 inhibitors” (Gan & Lee Pharmaceuticals, priority 2017, dated 2022)
Like-named read-outs stand apart in the source and are kept apart here.

How the values were obtained:
[1] = system: human osteosarcoma cell line SJSA-1; experiment: Inhibition of proliferation of human osteosarcoma cell line SJSA-1 (DAPI staining, In Cell Analyzer); settings: for inhibitory effect on human osteosarcoma cell line SJSA-1 compared with positive control compound HDM201: labels are Example numbers, the compounds with S-configuration are meant
MDM2 = target: T1, MDM2 (Homo sapiens, UniProt Q00987); experiment: Inhibition test of MDM2-P53 (GST-MDM2, Biotin-P53, Anti-GST-Tb, SA-XL665); format: binding; settings: labels are Example numbers; the compounds with S-configuration are meant
T1 construct: made in house
Procedure, shortened: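 Binding was measured by TR-FRET with GST-MDM2 at 4 nM final in PBS with 0.1% BSA, 5 mM DTT and 1 mM AEBSF. Compounds were tested as twelve-point 5-fold dilutions and incubated with the detection mix for 90 min at 25 °C with shaking before plate-reader reading and curve fitting.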

[2] = Homo sapiens, SJSA-1, 72 h, read-out: IC50 (nM), inhibitory activity on proliferation of human osteosarcoma cell line SJSA-1, SJSA-1, incubated 72 h

T1 sequence (Q00987 whole entry): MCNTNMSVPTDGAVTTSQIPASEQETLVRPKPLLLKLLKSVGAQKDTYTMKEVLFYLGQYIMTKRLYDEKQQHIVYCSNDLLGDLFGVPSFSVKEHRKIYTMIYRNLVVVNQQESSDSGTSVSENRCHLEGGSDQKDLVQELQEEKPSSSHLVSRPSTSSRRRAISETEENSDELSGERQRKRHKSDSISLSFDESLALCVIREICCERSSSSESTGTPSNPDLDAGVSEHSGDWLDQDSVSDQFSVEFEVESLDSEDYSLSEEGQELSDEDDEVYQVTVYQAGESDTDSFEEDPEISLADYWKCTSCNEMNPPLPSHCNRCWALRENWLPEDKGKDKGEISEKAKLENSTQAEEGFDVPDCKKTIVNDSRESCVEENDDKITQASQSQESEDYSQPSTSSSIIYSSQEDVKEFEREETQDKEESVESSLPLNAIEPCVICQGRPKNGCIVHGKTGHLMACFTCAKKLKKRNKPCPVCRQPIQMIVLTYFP

| Structure (SMILES) | inhibitory effect on human osteosarcoma cell line SJSA-1 compared with positive control compound HDM201 [1] | further results |
| --- | --- | --- |
| COc1ncc(-c2nc3c(n2C(C)C)C2(C(=O)Nc4cc(Cl)ccc42)N(c2cc(Cl)ccc2C)C3=O)c(OC)n1 (stereo not drawn) [Example 2, 6-chloro-5′-(5-chloro-2-methylphenyl)-2′-(2,4-dimethoxypyrimidin-5-yl)-3′-isopropyl-3′H-spiro[dihydroindole-3,4′-pyrrolo[3,4-d]imidazole]-2,6′(5′H)-dione] | better | inhibitory effect on MDM2 compared with positive control compound HDM201 (MDM2): better |
| COc1cc(OC)c(-c2nc3c(n2C(C)C)C2(C(=O)Nc4cc(Cl)ccc42)N(c2cc(Cl)ccc2C)C3=O)cn1 (stereo not drawn) [Example 11, 6-chloro-5′-(5-chloro-2-methylphenyl)-2′-(4,6-dimethoxypyridin-3-yl)-3′-isopropyl-3′H-spiro[dihydroindole-3,4′-pyrrolo[3,4-d]imidazole]-2,6′(5′H)-dione] | better | inhibitory effect on MDM2 compared with positive control compound HDM201 (MDM2): better |
| CCc1ccc(Cl)cc1N1C(=O)c2nc(-c3cnc(OC)nc3OC)n(C(C)C)c2C12C(=O)Nc1cc(Cl)ccc12 (stereo not drawn) [Example 15, 6-chloro-5′-(5-chloro-2-ethylphenyl)-2′-(2,4-dimethoxypyrimidin-5-yl)-3′-isopropyl-3′H-spiro[dihydroindole-3,4′-pyrrolo[3,4-d]imidazole]-2,6′(5′H)-dione] | better | inhibitory effect on MDM2 compared with positive control compound HDM201 (MDM2): better |
| COc1ccc(C(=O)N(C)C)cc1-c1nc2c(n1C(C)C)C1(C(=O)Nc3cc(Cl)ccc31)N(c1cc(Cl)ccc1C)C2=O (stereo not drawn) [Example 22, 3-(6-chloro-5′-(5-chloro-2-methylphenyl)-3′-isopropyl-2,6′-dioxo-5′,6′-dihydro-3′H-spiro[dihydroindole-3,4′-pyrrolo[3,4-d]imidazole]-2′-yl)-4-methoxy-N,N-dimethylbenzamide] | better | inhibitory effect on MDM2 compared with positive control compound HDM201 (MDM2): better |
| COc1ncc(-c2nc3c(n2C(C)C)C2(C(=O)Nc4cc(Cl)ccc42)N(c2cc(Cl)cnc2C)C3=O)c(OC)n1 (stereo not drawn) [Example 42, 6-chloro-5′-(5-chloro-2-methylpyridin-3-yl)-2′-(2,4-dimethoxypyrimidin-5-yl)-3′-isopropyl-3′H-spiro[dihydroindole-3,4′-pyrrolo[3,4-d]imidazole]-2,6′(5′H)-dione] | better | inhibitory effect on MDM2 compared with positive control compound HDM201 (MDM2): better |
| COc1cc(C2CC2)ncc1-c1nc2c(n1C(C)C)C1(C(=O)Nc3cc(Cl)ccc31)N(c1cccc(Cl)c1)C2=O (stereo not drawn) [Example 106, 6-chloro-5′-(3-chlorophenyl)-2′-(6-cyclopropyl-4-methoxypyridin-3-yl)-3′-isopropyl-3′H-spiro[dihydroindole-3,4′-pyrrolo[3,4-d]imidazole]-2,6′(5′H)-dione] | better |  |
| COc1cc(C2CC2)cc(OC)c1-c1nc2c(n1C(C)C)C1(C(=O)Nc3cc(Cl)ccc31)N(c1cc(Cl)ccc1C)C2=O (stereo not drawn) [Example 108, 6-chloro-5′-(5-chloro-2-methylphenyl)-2′-(4-cyclopropyl-2,6-dimethoxyphenyl)-3′-isopropyl-3′H-spiro[dihydroindole-3,4′-pyrrolo[3,4-d]imidazole]-2,6′(5′H)-dione] | better |  |
| COc1nc(N2CCCC2)ncc1-c1nc2c(n1C(C)C)C1(C(=O)Nc3cc(Cl)ccc31)N(c1cc(Cl)ccc1C)C2=O (stereo not drawn) [Example 114] | better |  |
| CCN(C)c1ncc(-c2nc3c(n2C(C)C)C2(C(=O)Nc4cc(Cl)ccc42)N(c2cc(Cl)ccc2C)C3=O)c(OC)n1 (stereo not drawn) [Example 119, 6-chloro-5′-(5-chloro-2-methylphenyl)-2′-(2-(ethyl(methyl)amino)-4-methoxypyrimidin-5-yl)-3′-isopropyl-3′H-spiro[dihydroindole-3,4′-pyrrolo[3,4-d]imidazole]-2,6′(5′H)-dione] | better |  |
| COc1nc(C2CC2)ncc1-c1nc2c(n1C(C)C)C1(C(=O)Nc3cc(Cl)ccc31)N(c1cc(Cl)ccc1C)C2=O (stereo not drawn) [Example 121, 6-chloro-5′-(5-chloro-2-methylphenyl)-2′-(2-cyclopropyl-4-methoxypyrimidin-5-yl)-3′-isopropyl-3′H-spiro[dihydroindole-3,4′-pyrrolo[3,4-d]imidazole]-2,6′(5′H)-dione] | better |  |
| CCOc1ncc(-c2nc3c(n2C(C)C)C2(C(=O)Nc4cc(Cl)ccc42)N(c2cc(Cl)ccc2C)C3=O)c(OC)n1 (stereo not drawn) [Example 127] | better |  |
| COc1nc(OCC(F)(F)F)ncc1-c1nc2c(n1C(C)C)C1(C(=O)Nc3cc(Cl)ccc31)N(c1cc(Cl)ccc1C)C2=O (stereo not drawn) [Example 141, 6-chloro-5′-(5-chloro-2-methylphenyl)-3′-isopropyl-2′-(4-methoxy-2-(2,2,2-trifluoroethoxy)pyrimidin-5-yl)-3′H-spiro[dihydroindole-3,4′-pyrrolo[3,4-d]imidazole]-2,6′(5′H)-dione] | better |  |
| COc1cc(C2CC2)ccc1-c1nc2c(n1C(C)C)C1(C(=O)Nc3cc(Cl)ccc31)N(c1cc(Cl)cnc1C)C2=O (stereo not drawn) [Example 145, 6-chloro-5′-(5-chloro-2-methylpyridin-3-yl)-2′-(4-cyclopropyl-2-methoxyphenyl)-3′-isopropyl-3′H-spiro[dihydroindole-3,4′-pyrrolo[3,4-d]imidazole]-2,6′(5′H)-dione] | better |  |
| CCOc1ccc(-c2nc3c(n2C(C)C)C2(C(=O)Nc4cc(Cl)ccc42)N(c2cc(Cl)ccc2C)C3=O)c(OC)n1 (stereo not drawn) [Example 146, 6-chloro-5′-(5-chloro-2-methylphenyl)-2′-(6-ethoxy-2-methoxypyridin-3-yl)-3′-isopropyl-3′H-spiro[dihydroindole-3,4′-pyrrolo[3,4-d]imidazole]-2,6′(5′H)-dione] | better |  |
| COc1nc(N(C)C)ccc1-c1nc2c(n1C(C)C)C1(C(=O)Nc3cc(Cl)ccc31)N(c1cc(Cl)ccc1C)C2=O (stereo not drawn) [Example 157, 6-chloro-5′-(5-chloro-2-methylphenyl)-2′-(6-(dimethylamino)-2-methoxypyridin-3-yl)-3′-isopropyl-3′H-spiro[dihydroindole-3,4′-pyrrolo[3,4-d]imidazole]-2,6′(5′H)-dione] | better |  |
| COc1nc(C2CC2)ncc1-c1nc2c(n1C(C)C)C1(C(=O)Nc3cc(Cl)ccc31)N(c1cc(Cl)cnc1C)C2=O (stereo not drawn) [Example 159, 6-chloro-5′-(5-chloro-2-methylpyridin-3-yl)-2′-(2-cyclopropyl-4-methoxypyrimidin-5-yl)-3′-isopropyl-3′H-spiro[dihydroindole-3,4′-pyrrolo[3,4-d]imidazole]-2,6′(5′H)-dione] | better |  |
| COc1cc(N(C)CCO)ccc1-c1nc2c(n1C(C)C)C1(C(=O)Nc3cc(Cl)ccc31)N(c1cc(Cl)ccc1C)C2=O (stereo not drawn) [Example 162, 6-chloro-5′-(5-chloro-2-methylphenyl)-2′-(4-((2-hydroxyethyl)(methyl)amino)-2-methoxyphenyl)-3′-isopropyl-3′H-spiro[dihydroindole-3,4′-pyrrolo[3,4-d]imidazole]-2,6′(5′H)-dione] | better |  |
| COc1nc(C(C)C)ncc1-c1nc2c(n1C(C)C)C1(C(=O)Nc3cc(Cl)ccc31)N(c1cc(Cl)ccc1C)C2=O (stereo not drawn) [Example 172, 6-chloro-5′-(5-chloro-2-methylphenyl)-3′-isopropyl-2′-(2-isopropyl-4-methoxypyrimidin-5-yl)-3′H-spiro[dihydroindole-3,4′-pyrrolo[3,4-d]imidazole]-2,6′(5′H)-dione] | better |  |
| COc1ccc(-c2nc3c(n2C(C)C)[C@]2(C(=O)Nc4cc(Cl)ccc42)N(c2cccc(Cl)c2)C3=O)c(OC)c1 [Example R-36, (R)-6-chloro-5′-(3-chlorophenyl)-2′-(2,4-dimethoxyphenyl)-3′-isopropyl-3′H-spiro[dihydroindole-3,4′-pyrrolo[3,4-d]imidazole]-2,6′(5′H)-dione] |  | IC50 [1, 2]: 3180 nM |
| COc1ccc(-c2nc3c(n2C(C)C)[C@@]2(C(=O)Nc4cc(Cl)ccc42)N(c2cccc(Cl)c2)C3=O)c(OC)c1 [Example S-36, (S)-6-chloro-5′-(3-chlorophenyl)-2′-(2,4-dimethoxyphenyl)-3′-isopropyl-3′H-spiro[dihydroindole-3,4′-pyrrolo[3,4-d]imidazole]-2,6′(5′H)-dione] |  | IC50 [1, 2]: 83.8 nM; IC50 ([1]; read-out: IC50 (nM), inhibitory activity on proliferation of human osteosarcoma cell line SJSA-1, SJSA-1, incubated 72 h): 72.3 nM |
| COc1ccncc1-c1nc2c(n1C(C)C)[C@@]1(C(=O)Nc3cc(Cl)ccc31)N(c1ccc(F)c(Cl)c1)C2=O [Example S-59, (S)-6-chloro-5′-(3-chloro-4-fluorophenyl)-3′-isopropyl-2′-(4-methoxypyridin-3-yl)-3′H-spiro[dihydroindole-3,4′-pyrrolo[3,4-d]imidazole]-2,6′(5′H)-dione] |  | IC50 [1, 2]: 263 nM |
